From patent publication US8153818B2, “Triazolyl phenyl benzenesulfonamides” (ChemoCentryx, Inc., priority 2006, dated 2012)
pIC50: −log10 of the molar value.

Target: T1, CCR2 (Homo sapiens, UniProt P41597)
T1 construct: CCR2 expressing THP-1 cells were centrifuged and resuspended in assay buffer; host or cells: THP-1
T1 sequence (P41597 1-360 isoform P41597-2): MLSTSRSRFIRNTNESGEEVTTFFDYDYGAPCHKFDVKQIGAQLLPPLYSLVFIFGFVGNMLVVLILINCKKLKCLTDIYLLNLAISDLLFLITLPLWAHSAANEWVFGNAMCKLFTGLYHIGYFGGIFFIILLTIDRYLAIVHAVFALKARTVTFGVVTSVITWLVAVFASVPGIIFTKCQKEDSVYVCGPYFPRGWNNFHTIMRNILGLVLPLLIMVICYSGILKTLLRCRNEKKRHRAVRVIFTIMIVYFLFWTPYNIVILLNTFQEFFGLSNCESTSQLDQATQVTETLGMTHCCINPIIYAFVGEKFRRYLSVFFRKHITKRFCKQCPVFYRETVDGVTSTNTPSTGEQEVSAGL
Assay: CCR2 activity in one of the chemotaxis, binding or calcium mobilization assays
Type: cell-based
Settings: assay not specified per compound
Method: Conventional migration assay was used to determine the efficacy of potential receptor antagonists in blocking migration mediated through chemokines (such as CCR2 or CCR9). This assay was routinely performed using the ChemoTX® microchamber system with a 5-μm pore-sized polycarbonate membrane. To begin such an assay, chemokine expressing cells (such as THP-1 cells for CCR2 assay or MOLT-4 cells for CCR9 assay) were harvested by centrifugation of cell suspension at 1000 RPM on a GS-6R Beckman centrifuge. The cell pellet was resuspended in chemotaxis buffer (HBSS with 0.1% BSA) at 10×10^6 cells/mL for CCR2 assay (5×10^6 cells/mL for CCR9 assay). Test compounds at desired concentrations were prepared from 10 mM stock solutions by serial dilutions in chemotaxis buffer. An equal volume of cells and compounds were mixed and incubated at room temperature for 15 minutes. Afterwards, 20 μL of the mixture was transferred onto the porous membrane of a migration microchamber, with 29 μL of chemokine ligand (0.1 nM chemokine MCP-1 protein for CCR2 assay or […] chemokine TECK protein for CCR9 assay) placed at the lower chamber. Following an incubation at 37° C. (90-minute for CCR2; 150-minute for CCR9), during which cells migrated against the chemokine gradient, the assay was terminated by removing the cell drops from atop the filter. To quantify cells migrated across the membrane, 5 μL of 7×CyQUANT® solution was added to each well in the lower chamber, and the fluorescence signal measured on a Spectrafluor Plus fluorescence plate reader (TECAN, Durham, N.C.). The degree of inhibition was determined by comparing migration signals between compound-treated and untreated cells. IC50 calculation was further performed by non-linear squares regression analysis using Graphpad Prism (Graphpad Software, San Diego, Calif.).
Calcium flux assay measures an increase in intracellular calcium following ligand-induced receptor activation. In the screen of chemokine antagonists, it was used as a secondary assay carried out on a FLIPR® machine (Molecular Devices, Mountain View, Calif.). To begin an assay, chemokine expressing cells (such as THP-1 cells for CCR2 assay or MOLT-4 cells for CCR9 assay) were harvested by centrifugation of cell suspension, and resuspended to 1.5×10^6 cells/mL in HBSS (with 1% fetal calf serum). Cells were then labeled with a calcium indicator dye Fluo-4 AM for 45 minutes at 37° C. with gentle shaking. Following incubation, cells were pelletted, washed once with HBSS and resuspended in the same buffer at a density of 1.6×10^6 cells/mL. One hundred microliters of labeled cells were mixed with 10 μL of test compound at the appropriate concentrations on an assay plate. Chemokine protein (MCP-1 at a final concentration of 0.1 nM for CCR2 assay or TECK at a final concentration of 25 nM for CCR9 assay) to activate the receptor. The degree of inhibition was determined by comparing calcium signals between compound-treated and untreated cells. IC50 calculations were further performed by non-linear squares regression analysis using Graphpad Prism (Graphpad Software, San Diego, Calif.).
Ligand binding assay was used to determine the ability of potential CCR2 antagonists to block the interaction between CCR2 and its ligand MCP-1. CCR2 expressing THP-1 cells were centrifuged and resuspended in assay buffer (20 mM HEPES pH 7.1, 140 mM NaCl, 1 mM CaCl2, 5 mM MgCl2, and with 0.2% bovine serum albumin) to a concentration of 2.2×10^5 cells/mL. Binding assays were set up as follows. […]

NC(=O)c1nnc(-c2cc(F)c(Cl)cc2NS(=O)(=O)c2ccc(Cl)c(C(F)(F)F)c2)n1-c1cc[nH]n1 [Compound 161, 5-(4-chloro-2-(4-chloro-3-(trifluoromethyl)phenylsulfonamido)-5-fluorophenyl)-4-(1H-pyrazol-3-yl)-4H-1,2,4-triazole-3-carboxamide]
pIC50: > 6.00
